Data taken from patent US12384821B2, “Antimicrobial peptides and compositions, methods, articles and kits relating thereto” (George Mason University, priority 2020, dated 2025).
Read-outs that look alike come from different tables or passages of the source. Where no end group is shown, it is not given here.

Columns and labels:
[1] = tested on: carbapenem-resistant K. pneumoniae strain (ATCC BAA-1705); type: cell-based, Klebsiella pneumoniae; conditions: for MIC (μM) / MIC (μg/mL): ATCC BAA-1705; for Antibacterial activity against CRKP (in words): CA-MHB, high salt test conditions
Experimental: Klebsiella pneumoniae ATCC BAA-1705 was purchased from the American Type Culture Collection (Manassas, VA) and grown in Cation-Adjusted Mueller Hinton Broth. Bacteria were aliquoted and frozen at −80° C. with 20% glycerol and enumerated via serial dilution and plating prior to experimentation.
The minimum inhibitory concentration (MIC) of the peptides was determined according to Clinical & Laboratory Standards Institute (CLSJ) guidelines. Bacteria were grown overnight on Cation-adjusted Mueller Hinton Agar (BD 211438, CAMHA) at 37° C. Assays were performed in Cation-adjusted Mueller Hinton Broth (BD 212322, CAMHB) in polypropylene 96 well plates (Corning 3879). Each experiment was performed with three replicates at least three times.

G. mellonella = tested on: G. mellonella; parameters: species or system Galleria mellonella; conditions: in vivo
From the text: (§1) We tested these antimicrobial peptides in the waxworm, G. mellonella.

[2] = Circular dichroism spectroscopy, percent alpha-helicity; type: physicochemical; conditions: 100 μg/mL peptide
Experimental: Circular dichroism (CD) analysis of the peptides was performed using a Jasco J-1500 spectropolarimeter. 100 μg/mL of peptide was used in each experiment. Samples were allowed to equilibrate for 5 min prior to data collection at 25° C. in a 1 mm path length cuvette. Spectra were collected from 190 to 260 nm with at 20 nm/min, a data integration time of 4 seconds and a 1 nm bandwidth. Data shown represents the average of four spectra. The peptides were analyzed in 10 mM sodium phosphate buffer (6.12 mM sodium monohydrogen phosphate heptahydrate; 3.92 mM monosodium phosphate anhydrous; pH 7.4), 50% (v/v) trifluoroethanol (TFE) in phosphate buffer, or 60 mM sodium dodecyl sulfate (SDS) in phosphate buffer. Percent contribution to secondary structure was measured using methods described in Raussens, V. et al. (Analytical Biochemistry, 319(1):114-21 (2003)).
The secondary structures of many CAMPs are disordered in the absence of anionic membranes or micelles, but adopt more defined secondary structures in their presence. To detect and measure any changes that the DRGN peptides may undergo based on environment, we studied their structural properties in 10 mM phosphate buffer as a negative control, 60 mM SDS in 10 mM phosphate buffer and 50% 2,2,2-Trifluoroethanol (TFE) in 10 mM phosphate buffer. Phosphate buffer without SDS or TFE provided an environment for studying the conformational properties of the peptides structure in the absence a micelle or membrane. Sodium dodecyl sulfate is an anionic surfactant that can form micelles in aqueous buffers mimicking bacterial membranes and simulating the effects an anionic membrane can have on the conformations of antimicrobial peptides. Addition of trifluoroethanol to aqueous buffer promotes increased structure, usually helicity, in peptides with suitable sequences.

CRKP infected waxworms = assay: Waxworm infection model (CRKP infected G. mellonella); type: in vivo, Galleria mellonella
Experimental: FIG. 5 is a graph showing waxworm survival curves. Waxworms were injected with 10 μL containing 5×10^5 CFU in their rear left proleg. The waxworms were allowed to recover for 30 minutes at 37° C. They were injected with 10 μL containing the various treatments. They were kept at 37° C. and scored for survival every 24 hours. Each group contained 10 waxworms.
Galleria mellonella larvae were obtained from Vanderhorst Wholesale (Saint Marys, OH, USA). 10 larvae weighing between 250 and 300 mg were randomly assigned to each group. Waxworms were injected with 10 μL containing […] suspended in DPBS in their rear left proleg. The waxworms were then allowed to recover for 30 minutes at 37° C. They were then injected with 10 μL DPBS containing the various treatments into their rear right proleg. They were then kept at 37° C. and scored for survival every 24 hours.
as §1

[3] = tested on: K. pneumoniae strain ATCC BAA-1705; assay: DiSC3(5) membrane depolarization assay; type: cell-based, Klebsiella pneumoniae; conditions: PBS, 100, 10 and 1 μg/ml, 20 min
Experimental: FIGS. 2A-2B are graphs showing (A) membrane disruption as measured by ethidium bromide uptake against K. pneumoniae strain ATCC BAA-1705 in PBS at 50 μg/ml. Δ RFU shown is after 20 min incubation, done twice in triplicate. A one-way ANOVA with multiple comparisons was performed to determine statistical significance (* p<0.05; ** p<0.01; *** p<0.001); and (B) membrane depolarization Membrane depolarization was measures using 3,3′-dipropylthiadicarbocyanine iodide (DiSC3(5)) against K. pneumoniae strain ATCC BAA-1705 in PBS at 100, 10 and 1 μg/ml. Δ RFU shown is after 20 min incubation, done twice in triplicate. DRGN-6 refers to SEQ ID NO:6, DRGN-7 refers to SEQ ID NO:6 with N-terminus acetylated, DRGN-8 refers to SEQ ID NO:7, NACATH refers to SEQ ID NO:9.
Membrane depolarization was measured using DiSC3(5) (3,3′-dipropylthiadicarbocyanine iodide) as previously described with some modifications. Stocks of enumerated frozen Klebsiella pneumonia ATCC BAA-1705 were pelleted and washed twice in phosphate buffered saline (PBS) and then resuspended to 4×10^7 CFU/ml in PBS containing 50 μg/ml DiSC3(5). […] The plate was incubated in a fluorescence spectrophotometer (Tecan Infinite 200) and monitored until fluorescence stopped decreasing. […] Readings were taken at 20 minutes after addition of peptide (excitation=635 nm; emission=670 nm). […]

Row | Compound | MIC (μM) ([1]; CLSI protocol in CA-MHB) | MIC (μg/mL) ([1]; CLSI protocol in CA-MHB) | MIC (μM) [1] | MIC (μg/mL) [1] | further results
1 | FRWRRFFRKAKRFLKRHGVSIAIGTVRLLRRFG [VK-CATH4.1] | 7.7 µM | 32 µg/mL |  |  | 
2 | RRWRRFFQKAKRLLRRFG [DRGN-6] |  |  | 1.6 µM | 4 µg/mL | Toxicity of peptide alone in waxworm (G. mellonella): none of the peptides DRGN-6, -7 and -8 alone caused toxicity
3 | RRWRRFFQKAKRFVKRHGVSIAVGAYRIIG [VK-CATH4.2] |  | 32 µg/mL | 8.7 µM |  | 
4 | H-FRWRRFFRKAKRFLKRHAVSIAIGTVRLLRRFG-OH [DRGN-2] | 7.7 µM | 32 µg/mL |  |  | 
5 | RRWRRFFRKAKRLLRRFG-NH2 [DRGN-9] |  |  | 6.4 µM | 16 µg/mL | Increase in MIC compared to unmodified counterpart DRGN-8 ([1]; C-terminal amidation, decreased effectiveness): 2 fold
6 | H-RRWRRFFQKAKRLLRRFG-NH2 [DRGN-7] |  |  | 1.6 µM | 4 µg/mL | Percent alpha-helicity, 10 mM phosphate buffer ([2]; 10 mM phosphate buffer): 3.0%; Percent alpha-helicity, SDS ([2]; 60 mM SDS in 10 mM phosphate buffer): 77.0%; Percent alpha-helicity, TFE ([2]; 50% TFE in 10 mM phosphate buffer): 72.6%; Survival benefit in CRKP infected waxworms (CRKP infected waxworms; single injection 30 min after infection): no survival benefit was observed; Change of MIC compared to DRGN-6 ([1]; increase = decreased effectiveness): no effect on MIC; Membrane depolarization, DiSC3(5) [3]: significant depolarization at all concentrations tested; Toxicity of peptide alone in waxworm (G. mellonella): none of the peptides DRGN-6, -7 and -8 alone caused toxicity
7 | CC[C@H](C)[C@H](NC(=O)[C@H](CCCCN)NC(=O)[C@H](CCC(=O)O)NC(=O)[C@H](CCCCN)NC(=O)[C@H](CO)NC(=O)[C@H](CCCCN)NC(=O)[C@H](CCCNC(=N)N)NC(=O)[C@H](Cc1ccccc1)NC(=O)[C@H](Cc1ccccc1)NC(=O)[C@H](CC(=O)O)NC(=O)CNC(=O)[C@H](CC(C)C)NC(=O)[C@@H](N)CC(C)C)C(=O)NCC(=O)N[C@@H](CCCCN)C(=O)N[C@@H](CCC(=O)O)C(=O)N[C@@H](Cc1ccccc1)C(=O)N[C@@H](CCCCN)C(=O)N[C@@H](CCCNC(=N)N)C(=O)N[C@H](C(=O)N[C@H](C(=O)N[C@@H](CCC(N)=O)C(=O)N[C@@H](CCCNC(=N)N)C(=O)N[C@H](C(=O)N[C@@H](CCCCN)C(=O)N[C@@H](CC(=O)O)C(=O)N[C@@H](Cc1ccccc1)C(=O)N[C@@H](CC(C)C)C(=O)N[C@@H](CCCNC(=N)N)C(=O)N[C@@H](CC(N)=O)C(=O)N[C@@H](CC(C)C)C(=O)N[C@H](C(=O)N1CCC[C@H]1C(=O)N[C@@H](CCCNC(=N)N)C(=O)N[C@H](C(=O)N[C@@H](CCC(=O)O)C(=O)N[C@@H](CO)C(=O)O)[C@@H](C)O)C(C)C)[C@@H](C)CC)C(C)C)[C@@H](C)CC [LL-37, reference compound] | >14 µM | >64 µg/mL |  |  | Antibacterial activity against CRKP (in words) [1]: very little antibacterial activity
8 | Ac-FRWRRFFRKAKRFLKRHGVSIAIGTVRLLRRFG-NH2 [DRGN-5] | 7.7 µM | 32 µg/mL |  |  | 
9 | Colistin [reference compound] | 3.46 µM | 4 µg/mL |  |  | 
10 | RRWRRFFRKAKRIIG-OH [DRGN-10] |  |  | >31 µM | >64 µg/mL | Antibacterial activity against CRKP (in words) [1]: virtually inactive
11 | CN(C)c1cc(NC(=O)CNC(C)(C)C)c(O)c2c1C[C@H]1C[C@H]3[C@H](N(C)C)C(O)=C(C(N)=O)C(=O)[C@@]3(O)C(O)=C1C2=O [tigecycline, reference compound] |  |  |  |  | Survival of CRKP infected caterpillars (CRKP infected waxworms; control antibiotic injected): 100%
12 | RRWRRFFRKAKRLLRRFG [DRGN-8] |  |  | 3.2 µM | 8 µg/mL | Toxicity of peptide alone in waxworm (G. mellonella): none of the peptides DRGN-6, -7 and -8 alone caused toxicity
13 | Ac-FRWRRFFRKAKRFLKRHAVSIAIGTVRLLRRFG-NH2 [DRGN-3] | 7.6 µM | 32 µg/mL |  |  | 
14 | RRWRRFFRKAKRIIG-NH2 [DRGN-11] |  |  | >31 µM | >64 µg/mL | Antibacterial activity against CRKP (in words) [1]: virtually inactive
